Assay results published in US8389523B2, “Substituted quinoxaline and an agrochemical composition thereof” (Kumiai Chemical Industry Co., Ltd., priority 2007, dated 2013).

What was measured:
Format in all cases: in vivo
Design in all cases: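 grade 0 to 5 of growth suppression where 5 is 90% or more and 0 below 10%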
[1] = system: Amaranthus viridis L.; assay: Herbicidal effects in upland field soil treatment (Test Example 2); conditions: 1000 g active ingredient per hectare, 21st day after treatment, criteria of Table 138
Description: (§1) Test Example 2 Test on Herbicidal Effects in Upland Field Soil Treatment A 80-cm^2 plastic pot was filled with upland field soil. Seeds of Abutilon theophrasti medicus and Amaranthus viridis L. were sowed, and soil was covered. A wettable powder formulation prepared according to Preparation Example 1 was diluted with water, and was uniformly sprayed on the soil surface with a small sprayer, in an amount equivalent to 1000 liters per hectare, such that 1000 g of the active ingredient per hectare was applied. Thereafter, the plants were grown in a greenhouse, and on the 21st day after the treatment, the herbicidal effects were investigated according to the criteria described in the Table 138 shown above.

[2] = system: Abutilon theophrasti medicus; assay: as above; conditions: 1000 g active ingredient per hectare, 21st day after treatment, criteria of Table 138
Description: as §1

[3] = system: Echinochloa oryzicola Vasing; assay: Herbicidal effects in paddy field soil treatment (Test Example 1); conditions: paddy field soil treatment; 1000 g of the active ingredient per hectare; wettable powder added dropwise on water surface; 21st day after treatment
Description: (§2) Test for Herbicidal Effects in Paddy Field Soil Treatment
(§3) A 100-cm^2 plastic pot was filled with paddy field soil. After puddling and leveling, seeds of Echinochloa oryzicola Vasing, Monochoria vaginalis (Burm. f.) Presl var. plantaginea (Roxb.) Solms-Laub., and Scirpus juncoides Roxb. var. ohwianus. T. Koyama were sowed, and the soil was waterlogged to a water depth of 3 cm. On the next day, a wettable powder formulation prepared according to Preparation Example 1 was diluted with water, and was added dropwise on the water surface. The amount of application was an amount equivalent to 1000 g of the active ingredient per hectare. Thereafter, the plants were grown in a greenhouse, and on the 21st day after the treatment, the herbicidal effects were investigated according to the criteria described in Table 138.

[4] = system: Scirpus juncoides Roxb. var. ohwianus. T. Koyama; assay: as above; conditions: paddy field soil treatment; 1000 g of the active ingredient per hectare; wettable powder added dropwise on water surface; 21st day after treatment
Description: as §2, §3

[5] = system: Monochoria vaginalis (Burm. f.) Presl var. plantaginea (Roxb.) Solms-Laub.; assay: as above; conditions: paddy field soil treatment; 1000 g of the active ingredient per hectare; wettable powder added dropwise on water surface; 21st day after treatment
Description: as §2, §3

CC(C)(C)n1c(=O)c(C(=O)C2=C(O)CCCC2=O)nc2ccccc21 [I-18]
herbicidal effect (index) on Amaranthus viridis L. [1]: 5 | herbicidal effect (index) on Abutilon theophrasti medicus [2]: 5

O=C1CCCC(O)=C1C(=O)c1nc2ccccc2n(COc2ccccc2)c1=O [I-57]
herbicidal effect (index) on Amaranthus viridis L. [1]: 5 | herbicidal effect (index) on Abutilon theophrasti medicus [2]: 4 | Herbicidal effects index, Echinochloa oryzicola Vasing [3]: 4 | Herbicidal effects index, Scirpus juncoides Roxb. var. ohwianus. T. Koyama [4]: 5 | Herbicidal effects index, Monochoria vaginalis (Burm. f.) Presl var. plantaginea (Roxb.) Solms-Laub. [5]: 5

CS(=O)(=O)Cn1c(=O)c(C(=O)C2=C(O)CCCC2=O)nc2ccccc21 [I-80]
herbicidal effect (index) on Amaranthus viridis L. [1]: 5 | herbicidal effect (index) on Abutilon theophrasti medicus [2]: 5

O=C1CCCC(O)=C1C(=O)c1nc2ccccc2n(Cc2ccc(Cl)cc2)c1=O [I-113]
Herbicidal effects index, Echinochloa oryzicola Vasing [3]: 5 | Herbicidal effects index, Scirpus juncoides Roxb. var. ohwianus. T. Koyama [4]: 5 | Herbicidal effects index, Monochoria vaginalis (Burm. f.) Presl var. plantaginea (Roxb.) Solms-Laub. [5]: 5

COc1ccccc1Cn1c(=O)c(C(=O)C2=C(O)CCCC2=O)nc2ccccc21 [I-120]
Herbicidal effects index, Echinochloa oryzicola Vasing [3]: 4 | Herbicidal effects index, Scirpus juncoides Roxb. var. ohwianus. T. Koyama [4]: 5 | Herbicidal effects index, Monochoria vaginalis (Burm. f.) Presl var. plantaginea (Roxb.) Solms-Laub. [5]: 5

COc1cccc(Cn2c(=O)c(C(=O)C3=C(O)CCCC3=O)nc3ccccc32)c1 [I-125]
Herbicidal effects index, Echinochloa oryzicola Vasing [3]: 4 | Herbicidal effects index, Scirpus juncoides Roxb. var. ohwianus. T. Koyama [4]: 5 | Herbicidal effects index, Monochoria vaginalis (Burm. f.) Presl var. plantaginea (Roxb.) Solms-Laub. [5]: 5

COc1ccc(Cn2c(=O)c(C(=O)C3=C(O)CCCC3=O)nc3ccccc32)cc1 [I-126]
Herbicidal effects index, Echinochloa oryzicola Vasing [3]: 4 | Herbicidal effects index, Scirpus juncoides Roxb. var. ohwianus. T. Koyama [4]: 5 | Herbicidal effects index, Monochoria vaginalis (Burm. f.) Presl var. plantaginea (Roxb.) Solms-Laub. [5]: 5

Cn1nc(C(F)(F)F)nc1-n1c(=O)c(C(=O)C2=C(O)CCCC2=O)nc2ccccc21 [I-165]
herbicidal effect (index) on Amaranthus viridis L. [1]: 5 | herbicidal effect (index) on Abutilon theophrasti medicus [2]: 5 | Herbicidal effects index, Echinochloa oryzicola Vasing [3]: 5 | Herbicidal effects index, Scirpus juncoides Roxb. var. ohwianus. T. Koyama [4]: 5 | Herbicidal effects index, Monochoria vaginalis (Burm. f.) Presl var. plantaginea (Roxb.) Solms-Laub. [5]: 5

O=C1CCCC(O)=C1C(=O)c1nc2ccccc2n(C2CCSCC2)c1=O [I-166]
Herbicidal effects index, Echinochloa oryzicola Vasing [3]: 4 | Herbicidal effects index, Scirpus juncoides Roxb. var. ohwianus. T. Koyama [4]: 5 | Herbicidal effects index, Monochoria vaginalis (Burm. f.) Presl var. plantaginea (Roxb.) Solms-Laub. [5]: 5

Cc1ccc(-n2c(=O)c(C(=O)C3=C(O)CCCC3=O)nc3ccccc32)nc1 [I-178]
herbicidal effect (index) on Amaranthus viridis L. [1]: 5 | herbicidal effect (index) on Abutilon theophrasti medicus [2]: 5 | Herbicidal effects index, Echinochloa oryzicola Vasing [3]: 4 | Herbicidal effects index, Scirpus juncoides Roxb. var. ohwianus. T. Koyama [4]: 5 | Herbicidal effects index, Monochoria vaginalis (Burm. f.) Presl var. plantaginea (Roxb.) Solms-Laub. [5]: 5

O=C1CCCC(O)=C1C(=O)c1nc2ccccc2n(-c2ccc3c(c2)OCCO3)c1=O [I-209, 1-(2,3-dihydrobenzo[b]1,4-dioxin-6-yl)-3-(2-hydroxy-6-oxo-1-cyclohexenecarbonyl)-quinoxalin-2(1H)-one]
herbicidal effect (index) on Amaranthus viridis L. [1]: 5 | herbicidal effect (index) on Abutilon theophrasti medicus [2]: 4 | Herbicidal effects index, Echinochloa oryzicola Vasing [3]: 4 | Herbicidal effects index, Scirpus juncoides Roxb. var. ohwianus. T. Koyama [4]: 5 | Herbicidal effects index, Monochoria vaginalis (Burm. f.) Presl var. plantaginea (Roxb.) Solms-Laub. [5]: 5

Cn1c(=O)c(C(=O)C2=C(O)CCCC2=O)nc2c(Cl)cccc21 [I-223]
herbicidal effect (index) on Amaranthus viridis L. [1]: 5 | herbicidal effect (index) on Abutilon theophrasti medicus [2]: 5 | Herbicidal effects index, Echinochloa oryzicola Vasing [3]: 4 | Herbicidal effects index, Scirpus juncoides Roxb. var. ohwianus. T. Koyama [4]: 5 | Herbicidal effects index, Monochoria vaginalis (Burm. f.) Presl var. plantaginea (Roxb.) Solms-Laub. [5]: 5

Cn1c(=S)c(C(=O)C2=C(O)CCCC2=O)nc2ccccc21 [I-256, 3-hydroxy-2-(1-methyl-2-thioxo-1,2-dihydroquinoxalin-3-yl-carbonyl)-2-cyclohexen-1-one]
herbicidal effect (index) on Amaranthus viridis L. [1]: 5 | herbicidal effect (index) on Abutilon theophrasti medicus [2]: 5

CCNc1nc(NC(C)C)nc(-n2c(=O)c(C(=O)C3=C(O)CCCC3=O)nc3ccccc32)n1 [I-274]
Herbicidal effects index, Echinochloa oryzicola Vasing [3]: 5 | Herbicidal effects index, Scirpus juncoides Roxb. var. ohwianus. T. Koyama [4]: 4 | Herbicidal effects index, Monochoria vaginalis (Burm. f.) Presl var. plantaginea (Roxb.) Solms-Laub. [5]: 5

Cn1ccc2cc(-n3c(=O)c(C(=O)C4=C(O)CCCC4=O)nc4ccccc43)ccc21 [I-276]
Herbicidal effects index, Echinochloa oryzicola Vasing [3]: 5 | Herbicidal effects index, Scirpus juncoides Roxb. var. ohwianus. T. Koyama [4]: 5 | Herbicidal effects index, Monochoria vaginalis (Burm. f.) Presl var. plantaginea (Roxb.) Solms-Laub. [5]: 5

O=C1CCCC(O)=C1C(=O)c1nc2cc(F)ccc2n(Cc2ccccc2)c1=O [I-280]
Herbicidal effects index, Echinochloa oryzicola Vasing [3]: 5 | Herbicidal effects index, Scirpus juncoides Roxb. var. ohwianus. T. Koyama [4]: 5 | Herbicidal effects index, Monochoria vaginalis (Burm. f.) Presl var. plantaginea (Roxb.) Solms-Laub. [5]: 5

CC(=O)c1ccc(-n2c(=O)c(C(=O)C3=C(O)CCCC3=O)nc3ccccc32)cc1 [II-140]
Herbicidal effects index, Echinochloa oryzicola Vasing [3]: 5 | Herbicidal effects index, Scirpus juncoides Roxb. var. ohwianus. T. Koyama [4]: 4 | Herbicidal effects index, Monochoria vaginalis (Burm. f.) Presl var. plantaginea (Roxb.) Solms-Laub. [5]: 5

COC(=O)c1ccc(-n2c(=O)c(C(=O)C3=C(O)CCCC3=O)nc3ccccc32)cc1 [II-146]
herbicidal effect (index) on Amaranthus viridis L. [1]: 5 | herbicidal effect (index) on Abutilon theophrasti medicus [2]: 4

COc1ccc(-n2c(=O)c(C(=O)C3=C(O)CCCC3=O)nc3ccccc32)cc1OC [II-169]
Herbicidal effects index, Echinochloa oryzicola Vasing [3]: 5 | Herbicidal effects index, Scirpus juncoides Roxb. var. ohwianus. T. Koyama [4]: 5 | Herbicidal effects index, Monochoria vaginalis (Burm. f.) Presl var. plantaginea (Roxb.) Solms-Laub. [5]: 5

COc1ccc(-n2c(=O)c(C(=O)C3=C(O)CCCC3=O)nc3ccccc32)c(Cl)c1 [II-175]
Herbicidal effects index, Echinochloa oryzicola Vasing [3]: 4 | Herbicidal effects index, Scirpus juncoides Roxb. var. ohwianus. T. Koyama [4]: 5 | Herbicidal effects index, Monochoria vaginalis (Burm. f.) Presl var. plantaginea (Roxb.) Solms-Laub. [5]: 5

COc1ccc(-n2c(=O)c(C(=O)C3=C(O)CCCC3=O)nc3ccccc32)c(OC)c1 [II-177]
Herbicidal effects index, Echinochloa oryzicola Vasing [3]: 4 | Herbicidal effects index, Scirpus juncoides Roxb. var. ohwianus. T. Koyama [4]: 5 | Herbicidal effects index, Monochoria vaginalis (Burm. f.) Presl var. plantaginea (Roxb.) Solms-Laub. [5]: 5

COc1ccc(-n2c(=O)c(C(=O)C3=C(O)CCCC3=O)nc3ccccc32)cc1Cl [II-179]
Herbicidal effects index, Echinochloa oryzicola Vasing [3]: 4 | Herbicidal effects index, Scirpus juncoides Roxb. var. ohwianus. T. Koyama [4]: 5 | Herbicidal effects index, Monochoria vaginalis (Burm. f.) Presl var. plantaginea (Roxb.) Solms-Laub. [5]: 5

COc1ccc(-n2c(=O)c(C(=O)C3=C(O)CCCC3=O)nc3cc(F)ccc32)cc1 [II-187]
Herbicidal effects index, Echinochloa oryzicola Vasing [3]: 5 | Herbicidal effects index, Scirpus juncoides Roxb. var. ohwianus. T. Koyama [4]: 5 | Herbicidal effects index, Monochoria vaginalis (Burm. f.) Presl var. plantaginea (Roxb.) Solms-Laub. [5]: 5

COc1ccc(-n2c(=O)c(C(=O)C3=C(O)CCCC3=O)nc3cc(Cl)ccc32)cc1 [II-195]
Herbicidal effects index, Echinochloa oryzicola Vasing [3]: 5 | Herbicidal effects index, Scirpus juncoides Roxb. var. ohwianus. T. Koyama [4]: 5 | Herbicidal effects index, Monochoria vaginalis (Burm. f.) Presl var. plantaginea (Roxb.) Solms-Laub. [5]: 5

O=C1CCCC(O)=C1C(=O)c1nc2ccccc2n(-c2ccc(OCC(F)(F)F)cc2)c1=O [II-209]
Herbicidal effects index, Echinochloa oryzicola Vasing [3]: 5 | Herbicidal effects index, Scirpus juncoides Roxb. var. ohwianus. T. Koyama [4]: 5 | Herbicidal effects index, Monochoria vaginalis (Burm. f.) Presl var. plantaginea (Roxb.) Solms-Laub. [5]: 5

COc1ccc(-n2c(=O)c(C(=O)C3=C(O)CCCC3=O)nc3cc(C)ccc32)cc1 [II-246]
Herbicidal effects index, Echinochloa oryzicola Vasing [3]: 4 | Herbicidal effects index, Scirpus juncoides Roxb. var. ohwianus. T. Koyama [4]: 5 | Herbicidal effects index, Monochoria vaginalis (Burm. f.) Presl var. plantaginea (Roxb.) Solms-Laub. [5]: 5

COc1c(F)cc(-n2c(=O)c(C(=O)C3=C(O)CCCC3=O)nc3ccc(C)cc32)cc1F [II-248]
Herbicidal effects index, Echinochloa oryzicola Vasing [3]: 5 | Herbicidal effects index, Scirpus juncoides Roxb. var. ohwianus. T. Koyama [4]: 5 | Herbicidal effects index, Monochoria vaginalis (Burm. f.) Presl var. plantaginea (Roxb.) Solms-Laub. [5]: 5

COc1ccc2c(c1)nc(C(=O)C1=C(O)CCCC1=O)c(=O)n2-c1ccccc1 [II-250]
herbicidal effect (index) on Amaranthus viridis L. [1]: 5 | herbicidal effect (index) on Abutilon theophrasti medicus [2]: 5

COc1ccc(-n2c(=O)c(C(=O)C3=C(O)CCCC3=O)nc3ccc(OC)cc32)cc1 [II-253]
Herbicidal effects index, Echinochloa oryzicola Vasing [3]: 5 | Herbicidal effects index, Scirpus juncoides Roxb. var. ohwianus. T. Koyama [4]: 5 | Herbicidal effects index, Monochoria vaginalis (Burm. f.) Presl var. plantaginea (Roxb.) Solms-Laub. [5]: 5

COc1ccc(-n2c(=O)c(C(=O)C3=C(O)CCCC3=O)nc3c(F)c(F)ccc32)cc1 [II-258]
Herbicidal effects index, Echinochloa oryzicola Vasing [3]: 4 | Herbicidal effects index, Scirpus juncoides Roxb. var. ohwianus. T. Koyama [4]: 5 | Herbicidal effects index, Monochoria vaginalis (Burm. f.) Presl var. plantaginea (Roxb.) Solms-Laub. [5]: 5

COc1ccc(-n2c(=O)c(C(=O)C3=C(O)CCCC3=O)nc3c(Cl)cc(Cl)cc32)cc1 [II-262]
herbicidal effect (index) on Amaranthus viridis L. [1]: 5 | herbicidal effect (index) on Abutilon theophrasti medicus [2]: 4

COc1ccc(-n2c(=O)c(C(=O)C3=C(O)CCCC3=O)nc3c(F)c(F)c(OC)c(F)c32)cc1 [II-302]
herbicidal effect (index) on Amaranthus viridis L. [1]: 5 | herbicidal effect (index) on Abutilon theophrasti medicus [2]: 4

CC(C(=O)OC(C)(C)C)n1c(=O)c(C(=O)C2=C(O)CCCC2=O)nc2cccnc21 (centres unmarked) [III-233]
herbicidal effect (index) on Amaranthus viridis L. [1]: 5 | herbicidal effect (index) on Abutilon theophrasti medicus [2]: 5
